Results: ChEMBL document CHEMBL5620422, “Design, synthesis, and biological evaluation of a series of new anthraquinone derivatives as anti-ZIKV agents” (Eur J Med Chem, 2023)
Active and inactive are the calls of the source. The rule behind the calls is not given here.

Legend:
Zika virus [1] = test: Antiviral activity against ZIKV ZG-01 infected in A549 cells preincubated for 1 hr followed by replacement with fresh media containing compound for 48 hrs by crystal violet staining based plaque assay; format: functional, organism-based; settings: time 49.0 hrs
[2] = Cytotoxicity against african green monkey Vero cells assessed as reduction in cell viability incubated for 48 hrs by MTT assay; format: toxicity, cell-based; settings: chlorocebus sabaeus
[3] = Cytotoxicity against human SNB-19 cells assessed as reduction in cell viability incubated for 48 hrs by MTT assay; format: toxicity, cell-based
Zika virus [4] = test: Antiviral activity against ZIKV ZG-01 infected in JEG-3 cells preincubated for 1 hr followed by replacement with fresh media containing compound for 48 hrs by crystal violet staining based plaque assay; format: functional
Zika virus [5] = test: Antiviral activity against ZIKV ZG-01 infected in A549 cells assessed as reduction in viral replication at 20 uM preincubated for 1 hr followed by replacement with fresh media containing compound for 48 hrs by RT-PCR analysis; format: functional; parameters: scale not given: the % may be the effect or the level left; settings: time 49 hrs
Zika virus [6] = test: Antiviral activity against ZIKV ZG-01 infected in Vero cells assessed as reduction in viral replication at 20 uM preincubated for 1 hr followed by replacement with fresh media containing compound for 48 hrs by RT-PCR analysis; format: functional; parameters: scale not given: the % may be the effect or the level left; settings: time 49 hrs
Zika virus [7] = test: Antiviral activity against ZIKV ZG-01 infected in JEG-3 cells assessed as reduction in viral replication at 20 uM preincubated for 1 hr followed by replacement with fresh media containing compound for 48 hrs by RT-PCR analysis; format: functional; parameters: scale not given: the % may be the effect or the level left; settings: time 49 hrs
Zika virus [8] = test: Antiviral activity against ZIKV ZG-01 infected in SNB-19 cells assessed as reduction in number of viral positive cells at 5 uM by immunofluorescence assay; format: functional, organism-based
Zika virus [9] = test: Antiviral activity against ZIKV ZG-01 infected in JEG-3 cells assessed as reduction in number of viral positive cells at 5 uM by immunofluorescence assay; format: functional, organism-based
Zika virus [10] = test: Antiviral activity against ZIKV ZG-01 infected in SNB-19 cells assessed as reduction in viral envelope protein level at 1 to 20 uM after 48 hrs by Western blot assay; format: functional, organism-based; settings: dose 1-20 µM
Zika virus [11] = test: Antiviral activity against ZIKV ZG-01 infected in JEG-3 cells assessed as reduction in viral envelope protein level at 1 to 20 uM after 48 hrs by Western blot assay; format: functional, organism-based; settings: dose 1-20 µM
[12] = Toxicity in Ifnar1 knockout C57BL/6 mouse assessed as corneal opacities at 60 mg/kg administered for 7 days; format: organism-based; settings: in vivo, 168 h, time 7 day
[13] = Toxicity in Ifnar1 knockout C57BL/6 mouse assessed as movement disorders at 60 mg/kg administered for 7 days; format: organism-based; settings: in vivo, 168 h, time 7 day
Zika virus [14] = test: Antiviral activity against ZIKV ZG-01 infected in Ifnar1 knockout C57BL/6 mouse assessed as reduction in number of animal paralysis at 20 mg/kg, iv administered daily for 7 days; format: functional, organism-based; settings: time 7.0 day
Zika virus [15] = test: Antiviral activity against ZIKV ZG-01 infected in Ifnar1 knockout C57BL/6 mouse assessed as reduction in duration of animal paralysis at 20 mg/kg, iv administered daily for 7 days; format: functional, organism-based; settings: time 7.0 day
Zika virus [16] = test: Antiviral activity against ZIKV ZG-01 infected in Ifnar1 knockout C57BL/6 mouse assessed as increase in animal survival at 20 mg/kg, iv administered daily for 7 days; format: functional, organism-based; settings: time 7.0 day
Zika virus [17] = test: Antiviral activity against ZIKV ZG-01 infected in Ifnar1 knockout C57BL/6 mouse assessed as reduction in mortality rate at 20 mg/kg, iv administered daily for 7 days; format: functional, organism-based; settings: time 7.0 day
Zika virus [18] = test: Antiviral activity against ZIKV ZG-01 infected in Ifnar1 knockout C57BL/6 mouse assessed as reduction in brain viral RNA at 20 mg/kg, iv administered daily for 7 days and measured upto 12 dpi by RT-qPCR analysis; format: functional, organism-based; settings: time <= 12.0 day
Zika virus [19] = test: Antiviral activity against ZIKV ZG-01 infected in Ifnar1 knockout C57BL/6 mouse assessed as reduction in neuronal necrosis by measuring necrotic debris at 20 mg/kg, iv administered daily for 7 days and measured upto 12 dpi by H and E staining based analysis; format: functional, organism-based; settings: time <= 12.0 day
Zika virus [20] = test: Antiviral activity against ZIKV ZG-01 infected in Ifnar1 knockout C57BL/6 mouse assessed as reduction in microglia activation by measuring Iba-1 expression at 20 mg/kg, iv administered daily for 7 days by immunohistochemistry analysis; format: functional, organism-based; settings: time 7.0 day
Zika virus [21] = test: Antiviral activity against ZIKV ZG-01 infected in Ifnar1 knockout C57BL/6 mouse assessed as reduction in astrocytes activation by measuring GFAP expression at 20 mg/kg, iv administered daily for 7 days by immunohistochemistry analysis; format: functional, organism-based; settings: time 7.0 day
Zika virus [22] = test: Antiviral activity against ZIKV ZG-01 infected in human SNB-19 cells assessed as reduction in IL-1beta expression at 1 to 5 uM by RT-PCR analysis; format: functional, organism-based; settings: dose 1-5 µM
Zika virus [23] = test: Antiviral activity against ZIKV ZG-01 infected in human SNB-19 cells assessed as reduction in IL-6 expression at 1 to 5 uM by RT-PCR analysis; format: functional, organism-based; settings: dose 1-5 µM
Zika virus [24] = test: Antiviral activity against ZIKV ZG-01 infected in human JEG-3 cells assessed as reduction in IL-1beta expression at 1 to 5 uM by RT-PCR analysis; format: functional, organism-based; settings: dose 1-5 µM
Zika virus [25] = test: Antiviral activity against ZIKV ZG-01 infected in human JEG-3 cells assessed as reduction in IL-6 expression at 1 to 5 uM by RT-PCR analysis; format: functional, organism-based; settings: dose 1-5 µM
Zika virus [26] = test: Antiviral activity against ZIKV ZG-01 infected in human JEG-3 cells assessed as reduction in TNFalpha expression at 1 to 5 uM by RT-PCR analysis; format: functional, organism-based; settings: dose 1-5 µM
Zika virus [27] = test: Antiviral activity against ZIKV ZG-01 infected in human JEG-3 cells assessed as reduction in IFNgamma expression at 1 to 5 uM by RT-PCR analysis; format: functional, organism-based; settings: dose 1-5 µM
Zika virus [28] = test: Antiviral activity against ZIKV ZG-01 infected in human SNB-19 cells assessed as reduction in TNFalpha release at 1 to 5 uM by ELISA; format: functional, organism-based; settings: dose 1-5 µM
SNB-19 = test: Antiinflammatory activity in human SNB-19 cells assessed as reduction in IFNgamma expression by RT-PCR analysis; format: functional, cell-based
JEG-3 [29] = test: Antiinflammatory activity in human JEG-3 cells assessed as reduction in IL-6 expression by RT-PCR analysis; format: functional, cell-based
JEG-3 [30] = test: Antiinflammatory activity in human JEG-3 cells assessed as reduction in IFNgamma expression by RT-PCR analysis; format: functional, cell-based
Zika virus [31] = test: Antiviral activity against ZIKV ZG-01 infected in human SNB-19 cells assessed as reduction in cell pyroptosis; format: functional, organism-based
Zika virus [32] = test: Antiviral activity against ZIKV ZG-01 infected in human JEG-3 cells assessed as reduction in cell pyroptosis; format: functional, organism-based
Zika virus [33] = test: Antiviral activity against ZIKV ZG-01 infected in human SNB-19 cells assessed as reduction in LDH release incubated for 36 hrs; format: functional, organism-based; settings: dose 1-5 µM
Zika virus [34] = test: Antiviral activity against ZIKV ZG-01 infected in human SNB-19 cells assessed as reduction in GSDMD cleavage by Western blot analysis; format: functional, organism-based; settings: dose 1-20 µM
HEK-293T = test: Effect on gaussia luciferase expression in HEK293T cells at 1 to 10 uM; format: functional, cell-based; settings: Homo sapiens, dose 1-10 µM

C[C@]1(O)CC2=C(C[C@@]1(C)O)C(=O)c1c(O)cc(N3CCC(c4ccccc4)CC3)c(O)c1C2=O
Activity (Zika virus [1]): Dose-Dependent Effect | CC50 at 48 h [2]: 65.4 µM | CC50 at 48 h [3]: 66.1 µM | EC90 (Zika virus [4]; ZG-01, JEG-3, time 49 hrs): 6.4 µM | Activity (Zika virus [4]; time 49.0 hrs): Dose-Dependent Effect | Activity (Zika virus [5]): 100% | Activity (Zika virus [6]): 100% | Activity (Zika virus [7]): 100% | Activity (Zika virus [8]): Active | Activity (Zika virus [9]): Active | Activity (Zika virus [10]): Active | Activity (Zika virus [11]): Active | Activity [12]: Non-Toxic | Activity [13]: Non-Toxic | Activity (Zika virus [14]): Active | Activity (Zika virus [15]): Active | Activity (Zika virus [16]): Active | Activity (Zika virus [17]): Active | Activity (Zika virus [18]): Active | Activity (Zika virus [19]): Active | Activity (Zika virus [20]): Active | Activity (Zika virus [21]): Active | Activity (Zika virus [22]): Active | Activity (Zika virus [23]): Active | Activity (Zika virus [24]): Active | Activity (Zika virus [25]): Active | Activity (Zika virus [26]): Active | Activity (Zika virus [27]): Active | Activity (Zika virus [28]): Active | Activity (SNB-19): inactive | Activity (JEG-3 [29]): inactive | Activity (JEG-3 [30]): inactive | Activity (Zika virus [31]): Active | Activity (Zika virus [32]): Active | Activity (Zika virus [33]): Dose-Dependent Effect | Activity (Zika virus [34]): Dose-Dependent Effect | Activity (HEK-293T): inactive
